In publication PMC7592913, “PE homeostasis rebalanced through mitochondria-ER lipid exchange prevents retinal degeneration in Drosophila” (PLoS Genetics, 2020):

Molecular target: T1, PECT (Drosophila melanogaster, UniProt Q9VK25)
T1 construct: pect cDNA in pMAL, N-terminal MBP fusion (tag kept), E. coli BL21 (DE3), amylose column
Assay: LC-MS (SRM) detection of CDP-ethanolamine product
Assay type: biochemical
Conditions: 1 mM phosphoethanolamine, 2 mM CTP, 10 mM MgCl2, 1 mM DTT, 1 uM MBP-PECT, pH 7.7, 37 °C, 15 min

T1 sequence (Q9VK25 1-393): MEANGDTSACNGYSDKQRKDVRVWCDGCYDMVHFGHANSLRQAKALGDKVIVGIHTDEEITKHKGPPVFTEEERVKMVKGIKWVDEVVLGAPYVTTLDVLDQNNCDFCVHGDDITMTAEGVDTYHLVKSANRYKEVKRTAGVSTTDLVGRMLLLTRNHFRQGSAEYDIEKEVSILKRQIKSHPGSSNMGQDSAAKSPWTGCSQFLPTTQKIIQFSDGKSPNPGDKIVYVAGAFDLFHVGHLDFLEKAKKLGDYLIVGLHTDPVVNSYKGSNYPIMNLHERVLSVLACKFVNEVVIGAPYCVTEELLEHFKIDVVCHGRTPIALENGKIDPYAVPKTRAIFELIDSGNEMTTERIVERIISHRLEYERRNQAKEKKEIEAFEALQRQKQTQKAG

| SMILES | LC-MS (SRM) detection of CDP-ethanolamine product |
| --- | --- |
| Nc1ccn([C@@H]2O[C@H](COP(=O)(O)OP(=O)(O)OP(=O)(O)O)[C@@H](O)[C@H]2O)c(=O)n1 [CTP] | CDP-ethanolamine was detected by the mass spectrum after incubating phosphoethanolamine and CTP with PECT |
| NCCOP(=O)(O)O [phosphoethanolamine] | CDP-ethanolamine was detected by the mass spectrum after incubating phosphoethanolamine and CTP with PECT |
